The record followed here is ChEMBL document CHEMBL1138006, “Identification of 2,3-diaryl-pyrazolo[1,5-b]pyridazines as potent and selective cyclooxygenase-2 inhibitors” (Bioorg Med Chem Lett, 2004).

The target of data set [1] is T1, Prostaglandin G/H synthase 2 (Homo sapiens, UniProt P35354).
T1 sequence (P35354 whole entry): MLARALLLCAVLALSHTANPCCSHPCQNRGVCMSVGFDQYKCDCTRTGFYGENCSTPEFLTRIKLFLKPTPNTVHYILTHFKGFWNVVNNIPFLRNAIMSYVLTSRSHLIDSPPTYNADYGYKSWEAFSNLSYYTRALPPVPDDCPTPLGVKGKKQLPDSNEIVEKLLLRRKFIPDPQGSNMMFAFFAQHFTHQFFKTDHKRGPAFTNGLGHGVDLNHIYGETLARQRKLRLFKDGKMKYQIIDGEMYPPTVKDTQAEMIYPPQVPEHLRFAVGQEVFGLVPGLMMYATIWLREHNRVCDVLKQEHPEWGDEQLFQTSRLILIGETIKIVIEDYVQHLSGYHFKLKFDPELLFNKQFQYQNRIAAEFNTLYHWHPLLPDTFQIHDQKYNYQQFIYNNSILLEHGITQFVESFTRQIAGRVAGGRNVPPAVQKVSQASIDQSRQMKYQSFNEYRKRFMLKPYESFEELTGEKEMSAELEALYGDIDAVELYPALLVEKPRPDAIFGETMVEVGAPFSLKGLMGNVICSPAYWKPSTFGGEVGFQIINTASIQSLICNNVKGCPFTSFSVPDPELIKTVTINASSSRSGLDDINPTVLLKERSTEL
The data set is classed as cell-based, COS.
Description: Inhibition of human cyclooxygenase-2 expressed in COS cells

For data set [2], the target named is Prostaglandin G/H synthase 1 (Homo sapiens, UniProt P23219). The data set is classed as cell-based, COS.
Chain of Prostaglandin G/H synthase 1 (P23219 whole entry): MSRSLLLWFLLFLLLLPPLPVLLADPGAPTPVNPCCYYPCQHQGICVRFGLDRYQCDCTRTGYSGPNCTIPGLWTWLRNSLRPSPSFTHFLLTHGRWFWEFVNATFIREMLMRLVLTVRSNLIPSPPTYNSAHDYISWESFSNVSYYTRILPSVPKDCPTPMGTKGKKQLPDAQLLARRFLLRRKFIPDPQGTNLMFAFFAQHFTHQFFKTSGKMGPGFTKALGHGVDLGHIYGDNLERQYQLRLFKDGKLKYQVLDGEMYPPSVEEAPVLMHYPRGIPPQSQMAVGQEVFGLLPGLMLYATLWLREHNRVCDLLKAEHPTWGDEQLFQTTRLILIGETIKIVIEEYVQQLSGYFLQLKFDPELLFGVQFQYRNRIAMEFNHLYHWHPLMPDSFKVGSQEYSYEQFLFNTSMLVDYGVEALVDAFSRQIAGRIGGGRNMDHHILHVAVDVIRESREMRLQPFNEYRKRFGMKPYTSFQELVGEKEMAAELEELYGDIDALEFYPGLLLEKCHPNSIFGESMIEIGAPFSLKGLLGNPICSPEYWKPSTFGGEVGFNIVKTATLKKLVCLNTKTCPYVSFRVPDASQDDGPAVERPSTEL
Description: Inhibition of human cyclooxygenase-1 expressed in COS cells
Data set [3] is described as follows: Clearance after iv administration of 2 mg/kg to rat. In kind it is ADME, organism-based. Also on record: dose 2 mg/kg, route intravenous. The settings on record: in vivo.
The nature of data set [4]: Distribution after iv administration of 2 mg/kg to rat. The settings on record: in vivo, read-out: Distribution. The data set is classed as ADME, organism-based. Also on record: dose 2 mg/kg, route intravenous.
A short description of data set [5]: Oral bioavailability after oral administration of 5 mg/kg to rat. The settings on record: in vivo, read-out: Bioavailabiility. The data set is classed as ADME, organism-based.
The nature of data set [6]: Half life after iv administration of 2 mg/kg to rat. Also on record: dose 2 mg/kg, route intravenous. The settings on record: in vivo. In kind it is ADME, organism-based.
For data set [7], the target named is T2, Prostaglandin G/H synthase 2 (Rattus norvegicus) (UniProt P35355).
T2 sequence (whole entry): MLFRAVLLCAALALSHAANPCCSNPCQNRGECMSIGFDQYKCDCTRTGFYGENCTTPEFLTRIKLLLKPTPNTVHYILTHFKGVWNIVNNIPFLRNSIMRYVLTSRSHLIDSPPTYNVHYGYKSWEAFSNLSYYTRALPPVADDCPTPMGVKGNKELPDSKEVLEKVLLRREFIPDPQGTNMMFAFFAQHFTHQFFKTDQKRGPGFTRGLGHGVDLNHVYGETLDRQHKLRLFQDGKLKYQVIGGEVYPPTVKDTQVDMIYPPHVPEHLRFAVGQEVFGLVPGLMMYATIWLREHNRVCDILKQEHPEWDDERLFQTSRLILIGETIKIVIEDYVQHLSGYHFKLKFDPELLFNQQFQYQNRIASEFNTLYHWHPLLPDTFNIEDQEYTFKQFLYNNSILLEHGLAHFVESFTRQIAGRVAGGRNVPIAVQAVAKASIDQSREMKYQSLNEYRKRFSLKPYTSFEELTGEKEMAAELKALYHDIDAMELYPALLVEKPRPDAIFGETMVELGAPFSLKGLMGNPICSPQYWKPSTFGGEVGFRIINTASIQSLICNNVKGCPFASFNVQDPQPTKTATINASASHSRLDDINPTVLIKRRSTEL
The data set can be described thus: Percent reversal of FCA-induced arthritis in rats at 10 mg/kg. Also on record: dose 10 mg/kg. The data set is classed as functional, organism-based.

pIC50: −log10 of the molar value. A value given as a limit tells only on which side of the number the result lay.

The pIC50 is the negative decadic logarithm of the IC50, by convention in mol/L. High values mean a small IC50, low ones a large IC50. In general, clearance refers to the volume of plasma or blood freed of the substance per unit of time. Low readings indicate inefficient removal, high ones efficient removal. Usually half-life stands for how long it takes for the measured level to halve.

Regarding `COc1ccc2c(-c3ccc(S(N)(=O)=O)cc3)c(-c3ccc(F)cc3)nn2n1`, the figures for the pIC50 in data set [1] and in data set [2] were 7.59 and 5.58, respectively.
The corresponding values for `Cc1ccc2c(-c3ccc(S(C)(=O)=O)cc3)c(-c3ccc(F)cc3)nn2n1` are 7.62 and below 4.00.
With `Cc1ccc(-c2ncc(Cl)cc2-c2ccc(S(C)(=O)=O)cc2)cn1` [ETORICOXIB], the pIC50 in data set [2] was below 4.00.
On to `CC(C)Oc1ccc2c(-c3ccc(S(C)(=O)=O)cc3)c(-c3ccc(F)cc3)nn2n1`, for which the pIC50 in data set [1] is 7.24; in data set [2], below 4.00.
Regarding `CCOc1ccc(-c2nn3ncccc3c2-c2ccc(S(C)(=O)=O)cc2)cc1` [GW-406381], the clearance in data set [3] is 9 mL/min/kg. For the same compound, in data set [4], the Vd was found to be 3 L/kg. Also, the bioavailability in data set [5] worked out at 80%. In data set [6], this compound had a half-life of 4.1 h. For the same compound, the pIC50 in data set [2] was below 4.07.
For the compound `CS(=O)(=O)c1ccc(-c2c(-c3ccc(F)cc3)nn3ncccc23)cc1`, the pIC50 in data set [1] is 7.41; in data set [2], below 4.00.
Turning to `CCc1ccc2c(-c3ccc(S(C)(=O)=O)cc3)c(-c3ccc(F)cc3)nn2n1`, the Reversal activity in data set [7] was 40%. Also, the results for the pIC50 in data set [1] and in data set [2] were 7.32 and below 4.00, respectively.
Regarding `NS(=O)(=O)c1ccc(-c2c(-c3ccc(F)cc3)nn3ncccc23)cc1`, the Reversal activity in data set [7] is 0%. In addition, the pIC50 was above 8.00 in data set [1] and 4.62 in data set [2].
Take `COc1ccc2c(-c3ccc(S(C)(=O)=O)cc3)c(-c3ccc(C)cc3)nn2n1`: the Reversal activity in data set [7] turned out to be 15%. The pIC50 is 7.30 in data set [1] and below 4.00 in data set [2].
Turning to `CCOc1ccc(-c2nn3nc(S(C)(=O)=O)ccc3c2-c2ccc(S(N)(=O)=O)cc2)cc1`, the Reversal activity in data set [7] was 0%. The pIC50 was 6.58 in data set [1] and below 4.00 in data set [2].
For the compound `NS(=O)(=O)c1ccc(-c2c(-c3ccc(OC(F)(F)F)cc3)nn3ncccc23)cc1`, the Reversal activity in data set [7] was 92%. For the same compound, the pIC50 in data set [1] was 6.41; in data set [2], below 4.00.
As to `CS(=O)(=O)c1ccc(-c2c(-c3ccccc3)nn3ncccc23)cc1`, the pIC50 in data set [1] was 8.70; in data set [2] it was below 4.00.
`Cc1ccc2c(-c3ccc(S(C)(=O)=O)cc3)c(-c3ccccc3)nn2n1`: in data set [7], the Reversal activity turned out to be 1%. In addition, the pIC50 in data set [1] was above 7.51; in data set [2], 4.36.
The corresponding values for `CCOc1ccc2c(-c3ccc(S(C)(=O)=O)cc3)c(-c3ccc(F)cc3)nn2n1` are 11%, 7.37 and below 4.00.
As to `CCOc1ccc(-c2nn3nc(SC)ccc3c2-c2ccc(S(N)(=O)=O)cc2)cc1`, the pIC50 in data set [1] was 7.89; in data set [2], 5.06.
With `Cc1ccc(-c2nn3ncccc3c2-c2ccc(S(C)(=O)=O)cc2)cc1`, the Reversal activity in data set [7] worked out at 23%. Further, the values for the pIC50 in data set [1] and in data set [2] were 7.77 and below 4.72, respectively.
Regarding `CS(=O)(=O)c1ccc(-c2c(-c3cccc(F)c3)nn3ncccc23)cc1`, in data set [7], the Reversal activity was 78%. In addition, the pIC50 in data set [1] was 7.47; in data set [2], 4.23.
The corresponding values for `COc1ccc2c(-c3ccc(S(C)(=O)=O)cc3)c(-c3ccc(F)cc3)nn2n1` are 10%, 7.29 and below 4.45.
